Results from patent publication US20240391882A1 (Mirati Therapeutics, Inc., priority 2023, published 2024).

How the values were obtained:
Format in all cases: cell-based
[1] = test system: pAKT in T47D (PI3Kα H1047R mutant) cells; experiment: Inhibition of pAKT (alphaLISA Surefire Ultra AKT 1/2/3 pS473) in T47D cells; details: Homo sapiens; T47D (PI3Kα H1047R mutant) cells, 24 hr compound incubation, alphaLISA pS473; read-out: T47D (H1047R) pAKT 24 hr (IC50)
How it was run: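 AlphaLISA read-out of AKT pS473 in lysates after roughly 24 h compound exposure at 37° C in HBSS. Ten concentrations, 1:4 dilutions from a 10.4 μm top dose. Percent of control uses alpelisib at 3.125 μm as background and DMSO as vehicle; four-parameter curve gives IC50.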

[2] = test system: T47D (PI3Kα H1047R mutant) cells; experiment: Cell viability (CellTiter-Glo 2.0) in T47D cells; details: Homo sapiens, T47D, 72 h, approximately 72 hours
How it was run: (§1)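 IC50 values derive from four-parameter fits of CellTiter-Glo luminescence expressed as percent of vehicle control. Cells (T47D or SKBR3) were plated at 1000/well the day before dosing and incubated about 72 h at 37° C with a 10-point, 1:4 series starting at 10 μm.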

[3] = test system: SKBR3 (PI3Kα wild type) cells; experiment: Cell viability (CellTiter-Glo 2.0) in SKBR3 cells; details: Homo sapiens, SK-BR-3; SKBR3 (PI3Kα wild type) cells, approximately 72 hours, CellTiter-Glo 2.0; read-out: SKBR3 (WT) Viability IC50
How it was run: as §1

SMILES	IC50 [1] [µM]	IC50 [2] [µM]	IC50 [3] [µM]
Cc1cc([C@@H](C)Nc2ccc(Cl)nc2C(=O)O)c2nc(N3CC(C)(C)C3)c(C#N)nc2c1 [Example 56, (R)-6-chloro-3-((1-(2-cyano-3-(3,3-dimethylazetidin-1-yl)-7-methylquinoxalin-5-yl)ethyl)amino)picolinic acid]	0.0047	0.128	> 10
Cc1cc([C@@H](C)Nc2ccccc2C(=O)O)c2nc(N3CCOCC3)c(C#N)nc2c1 [Example 57, (R)-2-((1-(2-cyano-7-methyl-3-morpholinoquinoxalin-5-yl)ethyl)amino)benzoic acid]	0.014	0.165	> 10
Cc1cc([C@@H](C)Nc2ccccc2C(=O)O)c2nc(N3CCC(C)(C)CC3)c(C#N)nc2c1 [Example 61, (R)-2-((1-(2-cyano-3-(4,4-dimethylpiperidin-1-yl)-7-methylquinoxalin-5-yl)ethyl)amino)benzoic acid]	0.0386	0.513	> 10
Cc1cc([C@@H](C)Nc2ccc(Cl)nc2C(=O)O)c2nc(N3CCC(C)(C)CC3)c(C#N)nc2c1 [Example 62, (R)-6-chloro-3-((1-(2-cyano-3-(4,4-dimethylpiperidin-1-yl)-7-methylquinoxalin-5-yl)ethyl)amino)picolinic acid]	0.0079	0.22	7.08
COC1(C)CN(c2nc3c([C@@H](C)Nc4ccccc4C(=O)O)cc(C)cc3nc2C#N)C1 [Example 63, (R)-2-((1-(2-cyano-3-(3-methoxy-3-methylazetidin-1-yl)-7-methylquinoxalin-5-yl)ethyl)amino)benzoic acid]	0.0165	0.254	9.81
Cc1cc([C@@H](C)Nc2ccccc2C(=O)O)c2nc(C3CC3)c(C#N)nc2c1 [Example 67, (R)-2-((1-(2-cyano-3-cyclopropyl-7-methylquinoxalin-5-yl)ethyl)amino)benzoic acid]	0.072	0.687	2.77
Cc1cc([C@@H](C)Nc2ccccc2C(=O)O)c2nc(N3CCCC3)c(C#N)nc2c1 [Example 68, (R)-2-((1-(2-cyano-7-methyl-3-(pyrrolidin-1-yl)quinoxalin-5-yl)ethyl)amino)benzoic acid]	0.0244	0.391	> 10
Cc1cc([C@@H](C)Nc2ccc(Cl)nc2C(=O)O)c2nc(N3CCC(F)(F)C3)c(C#N)nc2c1 [Example 70, (R)-6-chloro-3-((1-(2-cyano-3-(3,3-difluoropyrrolidin-1-yl)-7-methylquinoxalin-5-yl)ethyl)amino)picolinic acid]	0.0026	0.031	9.65
Cc1cc([C@@H](C)Nc2ccc(Cl)nc2C(=O)O)c2nc(N3CCC4(CC3)C(F)(F)C4(F)F)c(C#N)nc2c1 [Example 82, (R)-6-chloro-3-((1-(2-cyano-7-methyl-3-(1,1,2,2-tetrafluoro-6-azaspiro[2.5]octan-6-yl)quinoxalin-5-yl)ethyl)amino)picolinic acid]	0.0045	0.121	5.03
Cc1cc([C@@H](C)Nc2ccc(Cl)nc2C(=O)O)c2nc(N3CCO[C@H](C(F)(F)F)C3)c(C#N)nc2c1 [Example 190A, 6-chloro-3-(((R)-1-(2-cyano-7-methyl-3-((S)-2-(trifluoromethyl)morpholino)quinoxalin-5-yl)ethyl)amino)picolinic acid]	0.0044	0.271	> 10
Cc1cc([C@@H](C)Nc2ccc(Cl)nc2C(=O)O)c2nc(N3CCO[C@@H](C(F)(F)F)C3)c(C#N)nc2c1 [Example 190B, 6-chloro-3-(((R)-1-(2-cyano-7-methyl-3-((R)-2-(trifluoromethyl)morpholino)quinoxalin-5-yl)ethyl)amino)picolinic acid]	0.0173	0.764	> 10
Cc1cc([C@@H](C)Nc2cccnc2C(=O)O)c2nc(N3CCOCC3)c(C#N)nc2c1 [Example 203, (R)-3-((1-(2-cyano-7-methyl-3-morpholinoquinoxalin-5-yl)ethyl)amino)picolinic acid]	0.0251	0.559	2.23

Now those with a lower IC50 [1], led by results:

IC50 [1] [µM]	IC50 [2] [µM]	IC50 [3] [µM]	SMILES
0.0022	0.0614	> 10	CO[C@@H]1CCCN(c2nc3c([C@@H](C)Nc4ccc(Cl)nc4C(=O)O)cc(C)cc3nc2C#N)C1 [Example 196B, 6-chloro-3-(((R)-1-(2-cyano-3-((R)-3-methoxypiperidin-1-yl)-7-methylquinoxalin-5-yl)ethyl)amino)picolinic acid]
0.0021	0.0502	9.65	Cc1cc([C@@H](C)Nc2ccc(Cl)nc2C(=O)O)c2nc(N3CCCC3)c(C#N)nc2c1 [Example 69, (R)-6-chloro-3-((1-(2-cyano-7-methyl-3-(pyrrolidin-1-yl)quinoxalin-5-yl)ethyl)amino)picolinic acid]
0.0018	0.024	3.5	Cc1cc([C@@H](C)Nc2ccc(Cl)nc2C(=O)O)c2nc(N3CCOCC3)c(C#N)nc2c1 [Example 58, (R)-6-chloro-3-((1-(2-cyano-7-methyl-3-morpholinoquinoxalin-5-yl)ethyl)amino)picolinic acid]
0.0014	0.09	9.96	C[C@@H](Nc1ccc(Cl)nc1C(=O)O)c1cc(Cl)cc2nc(C#N)c(N3CC4(COC4)C3)nc12 [Example 145]
0.0014	0.0764	9.93	Cc1cc([C@@H](C)Nc2ccc(Cl)nc2C(=O)O)c2nc(N3CCC(N4CCCCC4=O)CC3)c(C#N)nc2c1 [Example 202, (R)-6-chloro-3-((1-(2-cyano-7-methyl-3-(2-oxo-[1,4′-bipiperidin]-1′-yl)quinoxalin-5-yl)ethyl)amino)picolinic acid]
0.0013	0.044	> 10	COC1(C)CN(c2nc3c([C@@H](C)Nc4ccc(Cl)nc4C(=O)O)cc(C)cc3nc2C#N)C1 [Example 64, (R)-6-chloro-3-((1-(2-cyano-3-(3-methoxy-3-methylazetidin-1-yl)-7-methylquinoxalin-5-yl)ethyl)amino)picolinic acid]
0.0012	0.0621	> 10	CO[C@H]1CCCN(c2nc3c([C@@H](C)Nc4ccc(Cl)nc4C(=O)O)cc(C)cc3nc2C#N)C1 [Example 196A, 6-chloro-3-(((R)-1-(2-cyano-3-((S)-3-methoxypiperidin-1-yl)-7-methylquinoxalin-5-yl)ethyl)amino)picolinic acid]
0.0012	0.0172	5.47	Cc1cc([C@@H](C)Nc2ccc(Cl)nc2C(=O)O)c2nc(N3CCN(c4cc(C)no4)CC3)c(C#N)nc2c1 [Example 200, (R)-6-chloro-3-((1-(2-cyano-7-methyl-3-(4-(3-methylisoxazol-5-yl)piperazin-1-yl)quinoxalin-5-yl)ethyl)amino)picolinic acid]
0.00027	0.0105	7.81	Cc1cc([C@@H](C)Nc2ccc(Cl)nc2C(=O)O)c2nc(N3CCN(c4cc(C)on4)CC3)c(C#N)nc2c1 [Example 201, (R)-6-chloro-3-((1-(2-cyano-7-methyl-3-(4-(5-methylisoxazol-3-yl)piperazin-1-yl)quinoxalin-5-yl)ethyl)amino)picolinic acid]
